Experimental findings from US10392368B2, “Pyrazolo and triazolo bicyclic compounds as JAK kinase inhibitors” (THERAVANCE BIOPHARMA R&D IP, LLC, priority 2017, dated 2019) are described below.

Data set [1] in a line: Dynamic moisture sorption (DMS) assessment. The format is physicochemical. To be noted: 25° C.; for hygroscopicity: DMS, 5% to 90% relative humidity; for weight gain (moisture uptake): humidity range of 5% to 90% relative humidity. The method, then:
Dynamic moisture sorption (DMS) measurements were performed using a VTI atmospheric microbalance, SGA-100 system (VTI Corp., Hialeah, Fla. 33016). A weighed sample was used and the humidity was lowest possible value (close to 0% RH) at the start of the analysis. The DMS analysis consisted of an initial drying step (0% RH) for 120 minutes, followed by two cycles of sorption and desorption with a scan rate of 5% RH/step over the humidity range of 5% RH to 90% RH. The DMS run was performed isothermally at 25° C.

The target in the next data set is T1, Tyk2 (Homo sapiens, UniProt P29597).
T1 construct: GST; purchased Life Technologies
T1 sequence (P29597 whole entry): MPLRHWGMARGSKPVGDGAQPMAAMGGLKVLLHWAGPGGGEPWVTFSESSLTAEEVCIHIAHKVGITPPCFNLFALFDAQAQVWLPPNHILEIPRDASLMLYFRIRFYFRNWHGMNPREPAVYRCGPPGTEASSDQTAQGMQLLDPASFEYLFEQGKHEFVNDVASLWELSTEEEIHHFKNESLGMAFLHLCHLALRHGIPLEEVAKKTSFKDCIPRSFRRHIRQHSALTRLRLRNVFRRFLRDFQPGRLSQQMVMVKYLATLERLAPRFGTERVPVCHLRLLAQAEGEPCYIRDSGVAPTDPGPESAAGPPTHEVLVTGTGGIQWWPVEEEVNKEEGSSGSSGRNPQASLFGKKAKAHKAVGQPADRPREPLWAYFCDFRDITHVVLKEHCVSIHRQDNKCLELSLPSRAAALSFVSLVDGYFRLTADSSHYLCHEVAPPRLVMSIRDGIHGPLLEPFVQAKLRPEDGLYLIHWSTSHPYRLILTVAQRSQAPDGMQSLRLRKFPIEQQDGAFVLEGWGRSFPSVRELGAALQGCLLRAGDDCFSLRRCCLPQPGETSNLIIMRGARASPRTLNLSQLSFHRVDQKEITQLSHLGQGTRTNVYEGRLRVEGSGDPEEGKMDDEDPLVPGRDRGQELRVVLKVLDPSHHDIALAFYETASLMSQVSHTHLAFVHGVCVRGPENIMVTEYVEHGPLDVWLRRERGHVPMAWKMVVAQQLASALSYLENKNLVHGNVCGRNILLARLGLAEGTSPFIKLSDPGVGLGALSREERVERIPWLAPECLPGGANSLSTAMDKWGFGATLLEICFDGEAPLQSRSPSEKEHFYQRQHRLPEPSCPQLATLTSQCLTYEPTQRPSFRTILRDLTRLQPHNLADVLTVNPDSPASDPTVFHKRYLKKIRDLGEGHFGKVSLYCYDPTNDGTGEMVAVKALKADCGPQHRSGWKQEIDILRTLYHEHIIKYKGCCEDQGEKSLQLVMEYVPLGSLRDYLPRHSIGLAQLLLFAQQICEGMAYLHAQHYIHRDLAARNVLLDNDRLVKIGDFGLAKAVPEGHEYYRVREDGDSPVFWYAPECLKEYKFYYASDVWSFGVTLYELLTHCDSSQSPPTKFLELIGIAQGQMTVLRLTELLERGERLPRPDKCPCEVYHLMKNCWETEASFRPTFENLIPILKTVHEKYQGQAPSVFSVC
As to the kind of experiment: Biochemical Tyk2 kinase assay (LanthaScreen). To be noted: for Ki: read-out: Tyk 2 (pKi) (converted). In a few lines:
(§1)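 Compounds were preincubated with the GST-tagged kinase and GFP-labelled STAT1 peptide for one hour before ATP initiated a one-hour reaction at ambient temperature. Phosphorylation was quantified by TR-FRET with a Tb-labelled pTyr701 antibody. Ki values were derived from IC50 using Cheng-Prusoff.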
On the technique in general: In TR-FRET formats the signal depends on donor and acceptor labels being close together.

For another data set, the target named is T2, JAK3 (Homo sapiens, UniProt P52333).
T2 sequence (P52333 1-1124): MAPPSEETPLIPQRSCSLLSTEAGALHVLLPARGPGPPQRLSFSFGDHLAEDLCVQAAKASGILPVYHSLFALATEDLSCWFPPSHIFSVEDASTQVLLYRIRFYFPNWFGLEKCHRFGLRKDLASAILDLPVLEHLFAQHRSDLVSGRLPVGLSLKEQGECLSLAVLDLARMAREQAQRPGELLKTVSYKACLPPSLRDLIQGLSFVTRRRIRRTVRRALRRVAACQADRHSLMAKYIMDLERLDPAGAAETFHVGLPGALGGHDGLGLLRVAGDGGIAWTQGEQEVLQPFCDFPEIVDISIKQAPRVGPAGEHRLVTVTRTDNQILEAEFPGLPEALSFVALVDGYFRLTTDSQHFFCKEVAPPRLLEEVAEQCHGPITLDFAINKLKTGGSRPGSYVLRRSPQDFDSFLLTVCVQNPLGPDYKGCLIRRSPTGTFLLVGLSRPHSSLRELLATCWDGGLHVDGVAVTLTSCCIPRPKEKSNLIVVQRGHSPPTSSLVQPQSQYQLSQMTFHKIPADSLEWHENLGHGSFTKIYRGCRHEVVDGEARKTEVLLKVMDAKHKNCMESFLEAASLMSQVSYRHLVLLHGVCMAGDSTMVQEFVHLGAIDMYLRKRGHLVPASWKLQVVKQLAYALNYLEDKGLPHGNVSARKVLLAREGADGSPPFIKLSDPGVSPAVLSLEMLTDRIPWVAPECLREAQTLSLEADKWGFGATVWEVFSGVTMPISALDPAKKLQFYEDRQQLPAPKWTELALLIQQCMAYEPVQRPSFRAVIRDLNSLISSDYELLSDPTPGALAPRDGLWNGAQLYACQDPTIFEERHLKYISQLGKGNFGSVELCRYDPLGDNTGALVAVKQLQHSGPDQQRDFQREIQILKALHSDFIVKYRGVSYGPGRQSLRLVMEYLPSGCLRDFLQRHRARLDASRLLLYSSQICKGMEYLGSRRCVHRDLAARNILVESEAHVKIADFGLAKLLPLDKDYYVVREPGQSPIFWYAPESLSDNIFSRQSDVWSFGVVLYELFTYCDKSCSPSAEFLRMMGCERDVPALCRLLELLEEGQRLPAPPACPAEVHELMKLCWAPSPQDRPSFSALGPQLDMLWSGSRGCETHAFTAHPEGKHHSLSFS
Nature of the data set: Biochemical JAK3 kinase assay (LanthaScreen). To be noted: for Ki: read-out: JAK 3 (pKi) (converted); for JAK3 (pKi)-JAK1 (pKi): selectivity: difference of pKi JAK3 and pKi JAK1. On the set-up: GST; purchased Life Technologies. In a few lines: as §1

In the next data set the target is T3, JAK1 (Homo sapiens, UniProt P23458).
T3 construct: GST; purchased Life Technologies
T3 sequence (P23458 whole entry): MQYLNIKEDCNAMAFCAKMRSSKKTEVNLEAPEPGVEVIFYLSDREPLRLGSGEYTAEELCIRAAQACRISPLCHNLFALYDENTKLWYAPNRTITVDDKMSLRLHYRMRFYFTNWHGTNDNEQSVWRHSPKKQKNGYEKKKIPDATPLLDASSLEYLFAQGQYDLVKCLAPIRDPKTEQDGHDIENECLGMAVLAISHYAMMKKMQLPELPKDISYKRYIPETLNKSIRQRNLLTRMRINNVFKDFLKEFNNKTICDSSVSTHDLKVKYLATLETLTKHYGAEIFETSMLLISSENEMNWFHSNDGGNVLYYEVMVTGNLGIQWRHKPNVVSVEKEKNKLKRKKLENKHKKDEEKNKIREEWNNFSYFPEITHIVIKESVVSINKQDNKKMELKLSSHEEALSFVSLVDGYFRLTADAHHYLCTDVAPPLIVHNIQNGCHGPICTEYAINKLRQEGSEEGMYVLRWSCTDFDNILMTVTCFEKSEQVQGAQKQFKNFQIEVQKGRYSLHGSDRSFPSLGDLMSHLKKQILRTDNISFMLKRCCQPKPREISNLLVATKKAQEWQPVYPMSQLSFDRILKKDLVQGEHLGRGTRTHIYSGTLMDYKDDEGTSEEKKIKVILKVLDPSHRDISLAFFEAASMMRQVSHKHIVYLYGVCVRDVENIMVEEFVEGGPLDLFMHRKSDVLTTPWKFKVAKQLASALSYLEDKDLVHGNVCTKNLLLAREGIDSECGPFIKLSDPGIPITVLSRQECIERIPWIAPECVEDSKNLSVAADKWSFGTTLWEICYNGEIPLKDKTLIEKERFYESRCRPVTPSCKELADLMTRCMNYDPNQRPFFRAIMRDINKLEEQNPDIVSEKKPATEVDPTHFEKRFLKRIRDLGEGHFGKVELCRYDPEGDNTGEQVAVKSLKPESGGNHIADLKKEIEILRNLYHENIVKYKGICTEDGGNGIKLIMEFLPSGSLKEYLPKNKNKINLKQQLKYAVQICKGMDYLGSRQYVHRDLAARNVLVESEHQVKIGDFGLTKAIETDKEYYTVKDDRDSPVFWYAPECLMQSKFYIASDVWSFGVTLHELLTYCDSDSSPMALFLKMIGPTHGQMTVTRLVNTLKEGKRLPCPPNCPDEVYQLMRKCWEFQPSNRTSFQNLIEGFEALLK
Nature of the data set: Biochemical JAK1 kinase assay (LanthaScreen). To be noted: for Ki: read-out: JAK 1 (pKi) (converted). In a few lines: as §1

Data set [2] relates to IL-2 stimulated pSTAT5 in Tall-1 T cells. As to the kind of experiment: Cellular JAK3 potency assay: inhibition of IL-2 stimulated pSTAT5 in Tall-1 T cells. The format is cell-based, human. The conditions noted are these: for IC50: Homo sapiens, TALL-1, IL-2 stimulated pSTAT5 in Tall-1 T cells, read-out: Tall-1 (pIC50) (converted). A digest of the protocol: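 Tall-1 human T cells (45,000/well) in phenol red-free DMEM with 10% FBS were preincubated with compound 1 h at 37 °C, then stimulated with IL-2 (final 300 ng/ml) for 30 min. Lysate pSTAT5 read by AlphaLisa; IC50 from inhibition curves, reported as pIC50 (mean±SD).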

Another data set has as its target T4, JAK2 (Homo sapiens, UniProt O60674).
T4 construct: GST; purchased Life Technologies
As to the kind of experiment: Biochemical JAK2 kinase assay (LanthaScreen). The conditions noted are these: for Ki: read-out: JAK 2 (pKi) (converted). A digest of the protocol: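 GST-tagged recombinant JAK2 pre-incubated 1 h at ambient temperature with compound and GFP-STAT1 peptide in HEPES pH 7.5/MgCl2 buffer, then ATP added for a 1 h reaction with 1% DMSO. TR-FRET read after EDTA and Tb-anti-pSTAT1 (pTyr701) addition; IC50 from 4-parameter fit, converted to pKi by Cheng-Prusoff.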

The subject of data set [3] is oxazolone-induced colitis. Nature of the data set: Mouse model of oxazolone-induced colitis. The format is in vivo. The procedure:
Oxazolone-induced colitis is an experimental model that has a histological resemblance to human ulcerative colitis (Heller et al. Immunology, 2002, 17, 629-638). Adult BALB/C mice from Harlan were used in the assay. On day 1, animals were lightly anesthetized with isoflurane and the hairs between the shoulder were carefully removed before oxazolone (4%, 150 μL, 4:1 acetone:olive oil formulation) or vehicle solution was slowly applied for skin sensitization. Seven days after skin sensitization, the mice were fasted around 6 hours prior, anesthetized with ketamine/xylazine injection, and a 1 mL syringe equipped with a 3.5-F catheter, filled with oxazolone solution, was inserted carefully about 4 cm into the colon of the mouse. Following insertion, 50 μL of the oxazolone solution (0.8% in 1:1 ethanol:water formulation) was injected very slowly (over 30 sec using an injection pump) into the colon. Drug treatment (PO, QD or BID or TID) or vehicle was initiated a day prior to the oxazolone intrarectal (IR) challenge. Two-day post oxazolone intrarectal challenge, the disease was assessed by treatment-blinded experimenters for each mouse according to the criteria score: stool consistency score (0, normal; 2, loose; 4, diarrhea), gross bleeding score (0, absence; 2, blood tinged; 4, presence); Combined stool score endpoint=stool consistency score+stool blood score.
Select compounds were tested in the assay.

T4 sequence (O60674 whole entry): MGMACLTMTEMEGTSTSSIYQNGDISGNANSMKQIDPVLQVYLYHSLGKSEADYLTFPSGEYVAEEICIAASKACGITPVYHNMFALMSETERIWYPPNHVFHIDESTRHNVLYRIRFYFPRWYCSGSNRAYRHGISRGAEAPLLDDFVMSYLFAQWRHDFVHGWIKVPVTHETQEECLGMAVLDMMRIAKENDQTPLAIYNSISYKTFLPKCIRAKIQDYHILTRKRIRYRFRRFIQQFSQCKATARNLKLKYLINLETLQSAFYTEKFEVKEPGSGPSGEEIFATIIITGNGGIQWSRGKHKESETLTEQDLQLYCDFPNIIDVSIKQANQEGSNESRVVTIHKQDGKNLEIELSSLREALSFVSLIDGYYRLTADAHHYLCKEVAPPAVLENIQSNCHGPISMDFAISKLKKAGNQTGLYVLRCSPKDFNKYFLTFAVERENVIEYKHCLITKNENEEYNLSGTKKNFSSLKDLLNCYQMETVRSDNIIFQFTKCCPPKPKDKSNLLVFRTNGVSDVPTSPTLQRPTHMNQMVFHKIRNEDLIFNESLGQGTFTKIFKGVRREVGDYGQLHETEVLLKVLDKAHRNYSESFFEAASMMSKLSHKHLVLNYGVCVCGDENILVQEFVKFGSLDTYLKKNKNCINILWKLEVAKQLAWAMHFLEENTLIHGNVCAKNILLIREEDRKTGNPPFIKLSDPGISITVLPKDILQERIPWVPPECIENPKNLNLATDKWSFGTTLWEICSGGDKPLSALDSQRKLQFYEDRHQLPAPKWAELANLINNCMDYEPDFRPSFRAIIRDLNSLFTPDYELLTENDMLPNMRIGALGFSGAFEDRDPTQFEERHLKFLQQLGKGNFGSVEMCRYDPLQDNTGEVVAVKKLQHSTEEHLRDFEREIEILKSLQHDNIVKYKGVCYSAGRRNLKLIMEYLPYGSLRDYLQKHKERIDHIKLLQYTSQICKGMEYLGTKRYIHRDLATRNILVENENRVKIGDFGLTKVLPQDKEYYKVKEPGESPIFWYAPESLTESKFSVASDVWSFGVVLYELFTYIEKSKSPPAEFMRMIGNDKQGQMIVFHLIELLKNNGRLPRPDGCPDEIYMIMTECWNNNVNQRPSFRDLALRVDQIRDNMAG

Take `CN(C)C/C=C/C(=O)N1CC(C(C)(C)Oc2cc(-c3ccc(O)c(Cl)c3)cc3[nH]ncc23)C1` [Form 1, (E)-1-(3-(2-((6-(3-chloro-4-hydroxyphenyl)-1H-indazol-4-yl)oxy)propan-2-yl)azetidin-1-yl)-4-(dimethylamino)but-2-en-1-one]: in data set [1], the hygroscopicity entry is recorded as “slightly hygroscopic” and the “weight gain (moisture uptake)” value was “about 1.62%”.

Take `CN(C)C/C=C/C(=O)N1CC(COc2cc(-c3ccc(O)cc3)cc3[nH]ncc23)C1` [Form 3, (E)-4-(dimethylamino)-1-(3-(((6-(4-hydroxyphenyl)-1H-indazol-4-yl)oxy)methyl)azetidin-1-yl)but-2-en-1-one]: in data set [1], the hygroscopicity entry is “non-hygroscopic” and the “weight gain (moisture uptake)” value is “about 0.33%”.

As for `CN(C)C/C=C/C(=O)N1CC(C(C)(C)Oc2cc(-c3ccc(O)c(Cl)c3)cc3[nH]ncc23)C1` [Form 2, (E)-1-(3-(2-((6-(3-chloro-4-hydroxyphenyl)-1H-indazol-4-yl)oxy)propan-2-yl)azetidin-1-yl)-4-(dimethylamino)but-2-en-1-one], in data set [1], the “weight gain (moisture uptake)” value is 7.99%.

As to `CN(C)C/C=C/C(=O)N1CC(COc2cc(-c3ccc(O)cc3)cc3[nH]ncc23)C1` [Form 4, (E)-4-(dimethylamino)-1-(3-(((6-(4-hydroxyphenyl)-1H-indazol-4-yl)oxy)methyl)azetidin-1-yl)but-2-en-1-one], in data set [1], the hygroscopicity entry is reported as “moderately hygroscopic” and the “weight gain (moisture uptake)” value is on record as “about 5.01%”.

As for `COC1(COc2cc(-c3ccc(O)c(Cl)c3)cc3[nH]ncc23)CN(C(=O)/C=C/CN(C)C)C1` [Compound 3-72], the Ki on Tyk2 was more than 100 nM; on JAK3, 0.1 to 1 nM; on JAK1, more than 100 nM; on JAK2, more than 100 nM. Moreover, on JAK3, the “JAK3 (pKi)-JAK1 (pKi)” value is given as “A (a value of 3 or above)”. The IC50 in data set [2] was less than 31.6 nM. Moreover, the “combined stool score endpoint as compared with vehicle treated animals” value in data set [3] (3 mg/kg (PO, BID)) is “statistically significant decrease”.

Take `C=CC(=O)N1CC(C(C)(C)Oc2cc(-c3ccc(O)c(F)c3)nc3[nH]ncc23)C1` [Compound 3-81]: at Tyk2, the “Tyk 2 (pKi)” value is “E (a pKi value of 7 or below (Ki of 100 nM or above))”. On JAK3, the “JAK 3 (pKi)” value is on record as “A (a pKi value≥10 (Ki≤0.1 nM))” and the “JAK3 (pKi)-JAK1 (pKi)” value was “A (a value of 3 or above)”. Also, the “JAK 1 (pKi)” value at JAK1 is “E (a pKi value of 7 or below (Ki of 100 nM or above))”. The “Tall-1 (pIC50)” value in data set [2] (IL-2 stimulated pSTAT5 in Tall-1 T cells) was “A (a pIC50 value≥7.5 (IC50≤32 nM))”. In addition, at JAK2, the “JAK 2 (pKi)” value was “E (a pKi value of 7 or below (Ki of 100 nM or above))”. Also, the “combined stool score endpoint as compared with vehicle treated animals” value in data set [3] (3 mg/kg (PO, BID)) is given as “statistically significant decrease”.

For `CC(C)N(C)C/C=C/C(=O)N1CC(COc2cc(-c3ccc(O)cc3)cc3[nH]ncc23)C1` [Compound 3-113], the Ki was more than 100 nM on Tyk2, less than 0.1 nM at JAK3, more than 100 nM on JAK1 and 10 to 100 nM at JAK2. In addition, the “JAK3 (pKi)-JAK1 (pKi)” value on JAK3 is “A (a value of 3 or above)”. For the same compound, in data set [2], the IC50 was less than 31.6 nM. Further, the “combined stool score endpoint as compared with vehicle treated animals” value in data set [3] (1 and 10 mg/kg only (PO, BID)) was “statistically significant decrease”.
